Columns and labels:
[1] = tested on: genotype A, "Long" strain RSV; experiment: RSV-A assay: CPE protection in HEp-2 cells, ATPlite readout; format: cell-based, human respiratory syncytial virus; conditions: human respiratory syncytial virus, HEp-2, read-out: Human RSV-A (“Long” strain) EC50
Outline: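 EC50 derives from ATPlite luminescence after 5-day culture of RSV Long-infected (MOI 0.1) HEp-2 cells, seeded 8,000/well, exposed to duplicate 2-fold compound series. CC50 comes from an identical plate receiving medium instead of virus.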

[2] = tested on: RSV genotype B, strain 9320; experiment: RSV-B assay: A549 cells infected with RSV-B, qPCR or ATPlite readout; format: cell-based; conditions: human respiratory syncytial virus, A549, 144 h, read-out: Human RSV-B EC50
Source text: HEp-2 cells, (originally derived from tumors grown in irradiated-cortisonised weanling rats that had been injected with epidermoid carcinoma tissue from a person's larynx, but later found to be indistinguishable from HeLa cells by PCR DNA analysis), were used for the culturing of genotype B, strain 9320. Flasks were inoculated with RSV-B and viral stocks were collected once cytopathic effect (CPE) was greater than […]. Viral stocks in 25% sucrose media were snap frozen using liquid nitrogen to increase viral stability. Viral stock titers were quantified by tissue culture infectious dose 50% (TCID50) using 8,000 cells per well and 5-fold viral dilutions across a 96-well plate, cultured for 4 days. Viral stock titers were also quantified by a plaque forming unit assay, as described elsewhere.
The assay is run as follows: A549 cells (originally derived through explant culture from a person's carcinomatous lung tissue) are seeded into the inner 60 wells of a 96-well plate at 3,000 cells per well in a volume of 50 μL using A549 growth media (F-12K Media, 1% Penn/Strep, 1% nonessential amino acids, 10% heat-inactivated FBS). 2-fold serial dilutions of control and test compounds are added to the wells in duplicate in a total volume of 25 μL. Viral stock is then added to the wells at a multiplicity of infection (MOI) of 0.5 in a volume of 25 μL, bringing the total volume of each well to 100 μL. The MOI is calculated using the PFU/mL, or TCID50 if unavailable. Each 96-well plate has a control column of 6 wells with cells and virus but no compound (negative control, max CPE), a column with cells but no compound or virus (positive control, minimum CPE), and a column with no cells or virus or compound (background plate/reagent control). The control wells with cells but no virus are given an additional 25 μL of growth media containing an equal quantity of sucrose as those wells receiving the viral stock in order to keep consistent in media and volume conditions. The outer wells of the plate are filled with 125 μL of moat media (DMEM, 1% Penn/Strep) to act as a thermal and evaporative moat around the test wells. 6 days post infection, the plates are read using qPCR or ATP lite (50 μL added per well), which quantifies the amount of ATP (a measure of cell health) present in each well. Assay plates treated with APTlite are read using the Envision luminometer. […] EC50 ranges are as follows: A <0.4 μM; B 0.4-0.8 μM; C >0.8 μM.

[3] = tested on: HEp-2 cells; experiment: Cytotoxicity in parallel to the RSV-A assay (no virus), ATPlite readout; format: cell-based, human
Protocol: Following extensive parameter testing, the final assay is run as follows: HEp-2 cells are seeded into the inner 60 wells of a 96-well plate at 8,000 cells per well in a volume of 50 μL using Growth Media (DMEM without phenol red, 1% L-Glut, 1% Penn/Strep, 1% nonessential amino acids, 10% heat-inactivated FBS). 2-fold serial dilutions of control and test compounds are added to the wells in duplicate in a total volume of 25 μL. Viral stock is then added to the wells at a multiplicity of infection (MOI) of 0.1 in a volume of 25 μL, bringing the total volume of each well to 100 μL. The MOI is calculated using the PFU/mL, or TCID50 if unavailable. Each 96-well plate has a control column of 6 wells with cells and virus but no compound (negative control, max CPE), a column with cells but no compound or virus (positive control, minimum CPE), and a column with no cells or virus or compound (background plate/reagent control). The control wells with cells but no virus are given an additional 25 μL of growth media containing an equal quantity of sucrose as those wells receiving the viral stock in order to keep consistent in media and volume conditions. The outer wells of the plate are filled with 125 μL of moat media (DMEM, 1% Penn/Strep) to act as a thermal and evaporative moat around the test wells. Following a 5-day incubation period, the plates are read using ATPlite (50 μL added per well), which quantifies the amount of ATP (a measure of cell health) present in each well. Assay plates are read using the Envision luminometer. In parallel, cytotoxicity is examined on an additional 96-well plate treated in an identical manner, but substituting the 25 μL of viral stock for 25 μL of growth media. […] EC50 ranges are as follows: A <0.4 μM; B 0.4-0.8 μM; C >0.8 μM and CC50 ranges are as follows: A >50 μM; B 10-50 μM; C <10 μM.

Row | SMILES | EC50 [1] | EC50 [2] | CC50 [3]
1 | N#Cc1ccc(-c2ccc(NC3N=C(c4ccccc4)c4ccccc4NC3=O)nn2)cc1 (stereo not drawn) [Example 377] | < 0.4 µM | < 0.4 µM | 
2 | COC1CCN(c2cc(C(F)(F)F)cnc2-c2nnc(N[C@H]3N=C(c4ccccc4)c4ccccc4NC3=O)o2)CC1 [Example 268] | > 0.8 µM | 0.4 to 0.8 µM | 
3 | Cc1nc(N2CCOCC2)c(-c2nnc(N[C@H]3N=C(c4ccccc4)c4ccccc4NC3=O)o2)cc1C#N [Example 158] | < 0.4 µM | < 0.4 µM | 
4 | N#Cc1cnc(-c2nnc(N[C@H]3N=C(c4ccccc4)c4ccccc4NC3=O)o2)c(N2CC3CCC(C2)O3)c1 [Example 304] | < 0.4 µM | < 0.4 µM | 
5 | O=C1Nc2ccccc2C(c2ccccc2)=NC1Nc1nnc(-c2ccc(N3CCOCC3)cc2)o1 (stereo not drawn) [Example 124] |  | < 0.4 µM | 
6 | O=C1Nc2ccccc2C(c2ccccc2)=NC1Nc1nnc(-c2ccccc2N2CCOCC2)o1 (stereo not drawn) [Example 125] |  | 0.4 to 0.8 µM | 
7 | COCCOc1cccc(-c2nnc(NC3N=C(c4ccccc4)c4ccccc4NC3=O)o2)c1 (stereo not drawn) [Example 1] | > 0.8 µM |  | > 50 µM
8 | N#Cc1cccc(-c2nnc(NC3N=C(c4ccccc4)c4ccccc4NC3=O)o2)c1 (stereo not drawn) [Example 35] | > 0.8 µM |  | > 50 µM
9 | O=C1Nc2ccccc2C(c2ccccc2)=NC1Nc1nnc(C2CCNCC2)o1 (stereo not drawn) [Example 45] | > 0.8 µM |  | > 50 µM
10 | COc1ccccc1-c1nnc(NC2N=C(c3ccccc3)c3ccccc3NC2=O)o1 (stereo not drawn) [Example 9] | > 0.8 µM |  | > 50 µM
11 | O=C1Nc2ccccc2C(c2ccccc2)=NC1Nc1nnc(-c2ccc(C(F)(F)F)cn2)o1 (stereo not drawn) [Example 25] | > 0.8 µM |  | > 50 µM
12 | O=C1Nc2ccccc2C(c2ccccc2)=NC1Nc1nnc(-c2ccncc2)s1 (stereo not drawn) [Example 83] | > 0.8 µM |  | > 50 µM
13 | Cn1nccc1-c1nnc(NC2N=C(c3ccccc3)c3ccccc3NC2=O)o1 (stereo not drawn) [Example 65] | > 0.8 µM |  | > 50 µM
14 | O=C1Nc2ccccc2C(c2ccccc2)=NC1Nc1nc(N2CCOCC2)ns1 (stereo not drawn) [Example 88] | > 0.8 µM |  | 10 to 50 µM
15 | Cc1cc(-c2nnc(NC3N=C(c4ccccc4)c4ccccc4NC3=O)o2)on1 (stereo not drawn) [Example 74] | > 0.8 µM |  | > 50 µM
16 | O=C1Nc2ccccc2C(c2ccccc2)=NC1Nc1nnc(-c2cccnc2)o1 (stereo not drawn) [Example 37] | > 0.8 µM |  | > 50 µM
17 | O=C1Nc2ccccc2C(c2ccccc2)=NC1Nc1nnc(-c2ccncc2)o1 (stereo not drawn) [Example 61] | 0.4 to 0.8 µM |  | > 50 µM
18 | O=C1Nc2ccccc2C(c2ccccc2)=NC1Nc1nnc(-c2ccc(-n3cccn3)cc2)o1 (stereo not drawn) [Example 36] | 0.4 to 0.8 µM |  | 10 to 50 µM
19 | O=C1Nc2ccccc2C(c2ccccc2)=NC1Nc1nnc(-c2ccc(C(F)(F)F)cc2)o1 (stereo not drawn) [Example 28] | > 0.8 µM |  | > 50 µM
20 | COc1ccc(-c2nnc(NC3N=C(c4ccccc4)c4ccccc4NC3=O)o2)nc1 (stereo not drawn) [Example 51] | 0.4 to 0.8 µM |  | > 50 µM
21 | O=C1Nc2ccccc2C(c2ccccc2)=NC1Nc1nc2ccccc2o1 (stereo not drawn) [Example 100] | > 0.8 µM |  | 10 to 50 µM
22 | Cc1ccc(-c2nnc(NC3N=C(c4ccccc4)c4ccccc4NC3=O)o2)s1 (stereo not drawn) [Example 19] | > 0.8 µM |  | > 50 µM
23 | N#Cc1cc(-c2nnc(NC3N=C(c4ccccc4)c4ccccc4NC3=O)o2)ccn1 (stereo not drawn) [Example 38] | > 0.8 µM |  | > 50 µM
24 | N#Cc1ccc(-c2nnc(NC3N=C(c4ccccc4)c4ccccc4NC3=O)s2)cc1 (stereo not drawn) [Example 82] | 0.4 to 0.8 µM |  | > 50 µM

Row | SMILES | EC50 [1] | EC50 [2] | CC50 [3]
25 | O=C1Nc2ccccc2C(c2ccccc2)=NC1Nc1nnc(-c2cncs2)o1 (stereo not drawn) [Example 76] | > 0.8 µM |  | > 50 µM
26 | Cc1ccc2oc(NC3N=C(c4ccccc4)c4ccccc4NC3=O)nc2c1 (stereo not drawn) [Example 106] | > 0.8 µM |  | < 10 µM
27 | O=C1Nc2ccccc2C(c2ccccc2)=NC1Nc1nnc(-c2ccnc(F)c2)o1 (stereo not drawn) [Example 55] | < 0.4 µM |  | > 50 µM
28 | O=C1Nc2ccccc2C(c2ccccc2)=NC1Nc1nnc(-c2ccc(Cl)cc2)o1 (stereo not drawn) [Example 13] | < 0.4 µM |  | > 50 µM
29 | Cc1cc(-c2nnc(NC3N=C(c4ccccc4)c4ccccc4NC3=O)o2)ccc1C#N (stereo not drawn) [Example 34] | 0.4 to 0.8 µM |  | > 50 µM
30 | COCc1cccc(-c2nnc(NC3N=C(c4ccccc4)c4ccccc4NC3=O)o2)n1 (stereo not drawn) [Example 64] | > 0.8 µM |  | > 50 µM
31 | O=C1Nc2ccccc2C(c2ccccc2)=NC1Nc1nnc(-c2ccc(F)nc2)o1 (stereo not drawn) [Example 53] | 0.4 to 0.8 µM |  | > 50 µM
32 | O=C1Nc2ccccc2C(c2ccccc2)=NC1Nc1nnc(-c2cc3cccnc3s2)o1 (stereo not drawn) [Example 43] | > 0.8 µM |  | > 50 µM
33 | N#Cc1cc(-c2nnc(NC3N=C(c4ccccc4)c4ccccc4NC3=O)o2)ccc1F (stereo not drawn) [Example 32] | 0.4 to 0.8 µM |  | > 50 µM
34 | CN1CCc2nc(-c3nnc(NC4N=C(c5ccccc5)c5ccccc5NC4=O)o3)sc2C1 (stereo not drawn) [Example 44] | > 0.8 µM |  | > 50 µM
35 | N#Cc1cnc(-c2nnc(N[C@H]3N=C(c4ccccc4)c4ccccc4NC3=O)o2)c(N2CCOCC2)c1 [Example 160] |  | < 0.4 µM | 
36 | CN(C)Cc1ccc(-c2nnc(NC3N=C(c4ccccc4)c4ccccc4NC3=O)o2)o1 (stereo not drawn) [Example 73] | > 0.8 µM |  | > 50 µM
37 | O=C1Nc2ccccc2C(c2ccccc2)=NC1Nc1nc(-c2ccccc2)cs1 (stereo not drawn) [Example 90] | > 0.8 µM |  | < 10 µM
38 | O=C1Nc2ccccc2C(c2ccccc2)=NC1Nc1nc2ccc(F)cc2o1 (stereo not drawn) [Example 103] | > 0.8 µM |  | 10 to 50 µM
39 | COc1ccnc(-c2nnc(NC3N=C(c4ccccc4)c4ccccc4NC3=O)o2)c1 (stereo not drawn) [Example 57] | > 0.8 µM |  | > 50 µM
40 | O=C1Nc2ccccc2C(c2ccccc2)=NC1Nc1nnc(-c2ncco2)o1 (stereo not drawn) [Example 70] | > 0.8 µM |  | > 50 µM
41 | O=C1Nc2ccccc2C(c2ccccc2)=NC1Nc1nnc([C@@H]2COCCN2)o1 (stereo partly drawn) [Example 48] | > 0.8 µM |  | > 50 µM
42 | COc1cccc(-c2nnc(NC3N=C(c4ccccc4)c4ccccc4NC3=O)o2)c1 (stereo not drawn) [Example 4] | > 0.8 µM |  | > 50 µM
43 | Cn1ccnc1-c1nnc(NC2N=C(c3ccccc3)c3ccccc3NC2=O)o1 (stereo not drawn) [Example 67] | > 0.8 µM |  | > 50 µM
44 | O=C1Nc2ccccc2C(c2ccccc2)=NC1Nc1nnc(-c2ccccc2)s1 (stereo not drawn) [Example 81] | > 0.8 µM |  | > 50 µM
45 | O=C1Nc2ccccc2C(c2ccccc2)=NC1Nc1nc2cc(F)ccc2o1 (stereo not drawn) [Example 104] | > 0.8 µM |  | 10 to 50 µM
46 | Cc1ccc(-c2nnc(NC3N=C(c4ccccc4)c4ccccc4NC3=O)o2)o1 (stereo not drawn) [Example 71] | > 0.8 µM |  | > 50 µM
47 | O=C1Nc2ccccc2C(c2ccccc2)=NC1Nc1nnc(-c2cnco2)o1 (stereo not drawn) [Example 75] | > 0.8 µM |  | > 50 µM
48 | COCc1ccc(-c2nnc(NC3N=C(c4ccccc4)c4ccccc4NC3=O)o2)o1 (stereo not drawn) [Example 72] | > 0.8 µM |  | > 50 µM

Reference: US12268694B2, “Combination pharmaceutical agents as RSV inhibitors” (Enanta Pharmaceuticals, Inc., priority 2017, dated 2025)
